In US20140221369A1, “5-DEUTERO-2,4-THIAZOLIDINEDIONE AND 5-DEUTERO-2,4-OXAZOLIDINEDIONE DERIVATIVES AND COMPOSITIONS COMPRISING AND METHODS OF USING THE SAME” (DeuteRx, LLC, priority 2013, published 2014):
pEC50: −log10 of the molar value. Each block holds one compound with its values, some of them ahead of it.

Assays:
[1] = In vitro stability in human plasma at 37° C. (enantiomerization and D/H exchange, chiral LC/MS-MS, kinetic fit); type: in vitro ADME; details: for k, h+ → h− / k, h− → h+: enantiomerization rate constant, fit of the stability data of the protonated enantiomer
Protocol: The (+)-5-[(p-{[6-(4-amino-3,5-xylyloxy)-1-methyl-1,3-diaza-1H-inden-2-yl]methoxy}phenyl)methyl]-1,3-thiazolidine-2,4-dione, (−)-5-[(p-{[6-(4-amino-3,5-xylyloxy)-1-methyl-1,3-diaza-1H-inden-2-yl]methoxy}phenyl)methyl]-1,3-thiazolidine-2,4-dione, and rac-5-[(p-{[6-(4-amino-3,5-xylyloxy)-1-methyl-1,3-diaza-1H-inden-2-yl]methoxy}phenyl)methyl]-(5-^2H)-1,3-thiazolidine-2,4-dione were incubated in human plasma (K3EDTA as anticoagulant) at 37° C. in duplicates. […] It also contained ˜15% of the protonated enantiomers. Aliquots were removed at time=0, 5, 10, 15, 30 min, and 1, 2, 4, and 8 hours. Plasma proteins were precipitated by addition of acetonitrile containing cisapride as an internal standard (ISTD) and the supernatants were analyzed semi-quantitatively by LC/MS-MS with elution on a chiral column (Daicel ChiralPak IC-3) for the separation of enantiomers (isocratic method of 30:70 v/v 20 mM ammonium bicarbonate in water (pH=9.0) and acetonitrile). Peak areas for the deuterated enantiomers (+)-5-[(p-{[6-(4-amino-3,5-xylyloxy)-1-methyl-1,3-diaza-1H-inden-2-yl]methoxy}phenyl)methyl]-1,3-thiazolidine-2,4-dione and (−)-5-[(p-{[6-(4-amino-3,5-xylyloxy)-1-methyl-1,3-diaza-1H-inden-2-yl]methoxy}phenyl)methyl]-(5-^2H)-1,3-thiazolidine-2,4-dione were normalized to the ISTD and corrected for the isotopic peak of the corresponding protonated enantiomer, (+)-5-[(p-{[6-(4-amino-3,5-xylyloxy)-1-methyl-1,3-diaza-1H-inden-2-yl]methoxy}phenyl)methyl]-1,3-thiazolidine-2,4-dione and (−)-5-[(p-{[6-(4-amino-3,5-xylyloxy)-1-methyl-1,3-diaza-1H-inden-2-yl]methoxy}phenyl)methyl]-1,3-thiazolidine-2,4-dione, respectively, if present. Corrected data were analyzed and plotted using Microsoft Excel 2013 (Microsoft Corp, Redmond, Wash.) and the Excel Solver.
Scheme 1 illustrates possible reactions in a solution of a mixture of deuterated enantiomers when no degradation or side-reactions occur. The deuterium in both enantiomers, d+ and d−, can be lost by D/H exchange to give both protonated enantiomers, h+ and h− with rate constants kD++, kD+−, kD−+, kD−−, where D indicates D/H exchange, the first +/− represents the reagent, d+ or d−, and the second +/− stands for the product, h+ or h−. At the same time, the protonated enantiomers h+ and h− can exchange, with enantiomerization rate constants k+− and k−+.
Illustration of possible reactions and corresponding rate constants in a solution of rac-5-[(p-{[6-(4-amino-3,5-xylyloxy)-1-methyl-1,3-diaza-1H-inden-2-yl]methoxy}phenyl)methyl]-(5-^2H)-1,3-thiazolidine-2,4-dione where d+, d−, h+, h− stand for […] and (−)-5-[(p-{[6-(4-amino-3,5-xylyloxy)-1-methyl-1,3-diaza-1H-inden-2-yl]methoxy}phenyl)methyl]-(5-^2H)-1,3-thiazolidine-2,4-dione and (+)- and (−)-5-[(p-{[6-(4-amino-3,5-xylyloxy)-1-methyl-1,3-diaza-1H-inden-2-yl]methoxy}phenyl)methyl]-1,3-thiazolidine-2,4-dione, respectively.
Independent analyses of the data for h+ and h− were performed first and the average rate constants k+− and k−+ from these two fits were calculated and used as constants in the fitting of the stability data of the deuterated racemate. Calculated concentrations were obtained through numerical approximation of differential equations (1) and (2) for the stability studies of h+ and h− and equations (3) to (6) for the stability study of the enantiomeric mixture of deuterated d+ and d− by the Euler method (equation (7)). The step between calculated time points was minimized in order to minimize the local error (proportional to the square of the step size) and the global error (proportional to the step size). Data analysis was performed in Microsoft Excel 2013, using the Solver Generalized Reduced Gradient Nonlinear method with central derivatives to minimize the sum of sums of weighted Δ^2, square of difference between ISTD-normalized experimental data and calculated value, divided by the experimental data. […]

[2] = biological target: T1, peroxisome proliferator-activated receptor gamma (PPARγ) (Homo sapiens, UniProt P37231); assay: TRAP220 PPARγ coactivator recruitment assay (Cerep); type: biochemical; details: for pEC50: TRAP220 coactivator recruitment, percent of control (10 μM rosiglitazone), four-parameter fit, read-out: EC50, PPARγ agonist activity
T1 construct: label (kind not specified); Cerep (France), contract assay
Protocol: The agonist activity of (+)- and (−)-5-[(p-{[6-(4-amino-3,5-xylyloxy)-1-methyl-1,3-diaza-1H-inden-2-yl]methoxy}phenyl)methyl]-(5-^2H)-1,3-thiazolidine-2,4-dione at the peroxisome proliferator-activated receptor gamma (PPARγ) was evaluated in the thyroid receptor-associated protein complex, 220 kDa component (TRAP220) PPARγ coactivator recruitement assay performed at Cerep (France). Briefly, a mixture of labeled PPARγ and TRAP220 coactivator was pre-incubated with a fluorescence acceptor at room temperature for 30 minutes in the presence of a fluorescence acceptor and the test compound. A fluorescence donor was then added and the mixture was incubated for 120 minutes at room temperature. The fluorescence signal was measured and results expressed as a percent of control (10 μM rosiglitazone). A dose response curve was generated for each enantiomer and the experimental data was analyzed using the log(agonist) vs. response−variable slope (four parameters) nonlinear model in GraphPad Prism 6.0 (GraphPad Software, Inc., La Jolla, Calif.).

[3] = D/H exchange rate constant, mixture of d− and d+ in human plasma at 37° C., fit to Equations 1 to 6
[4] = average of enantiomerization rate constants obtained by fitting data for h− and h+, human plasma at 37° C.

T1 sequence (P37231 whole entry): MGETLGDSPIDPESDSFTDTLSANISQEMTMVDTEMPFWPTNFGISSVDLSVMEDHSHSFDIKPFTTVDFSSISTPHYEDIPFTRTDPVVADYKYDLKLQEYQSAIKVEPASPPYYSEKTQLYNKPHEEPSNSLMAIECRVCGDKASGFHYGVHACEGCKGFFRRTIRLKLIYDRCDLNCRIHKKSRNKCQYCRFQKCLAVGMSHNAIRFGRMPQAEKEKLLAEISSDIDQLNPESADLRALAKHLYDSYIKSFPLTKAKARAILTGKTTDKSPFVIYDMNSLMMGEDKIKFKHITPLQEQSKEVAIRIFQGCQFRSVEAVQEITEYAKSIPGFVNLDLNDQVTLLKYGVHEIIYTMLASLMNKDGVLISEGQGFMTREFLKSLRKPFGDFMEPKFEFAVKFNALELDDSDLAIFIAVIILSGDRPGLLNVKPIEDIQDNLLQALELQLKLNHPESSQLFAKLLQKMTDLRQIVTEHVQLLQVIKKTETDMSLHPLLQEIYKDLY
T1 sequence (Q15648 whole entry partner): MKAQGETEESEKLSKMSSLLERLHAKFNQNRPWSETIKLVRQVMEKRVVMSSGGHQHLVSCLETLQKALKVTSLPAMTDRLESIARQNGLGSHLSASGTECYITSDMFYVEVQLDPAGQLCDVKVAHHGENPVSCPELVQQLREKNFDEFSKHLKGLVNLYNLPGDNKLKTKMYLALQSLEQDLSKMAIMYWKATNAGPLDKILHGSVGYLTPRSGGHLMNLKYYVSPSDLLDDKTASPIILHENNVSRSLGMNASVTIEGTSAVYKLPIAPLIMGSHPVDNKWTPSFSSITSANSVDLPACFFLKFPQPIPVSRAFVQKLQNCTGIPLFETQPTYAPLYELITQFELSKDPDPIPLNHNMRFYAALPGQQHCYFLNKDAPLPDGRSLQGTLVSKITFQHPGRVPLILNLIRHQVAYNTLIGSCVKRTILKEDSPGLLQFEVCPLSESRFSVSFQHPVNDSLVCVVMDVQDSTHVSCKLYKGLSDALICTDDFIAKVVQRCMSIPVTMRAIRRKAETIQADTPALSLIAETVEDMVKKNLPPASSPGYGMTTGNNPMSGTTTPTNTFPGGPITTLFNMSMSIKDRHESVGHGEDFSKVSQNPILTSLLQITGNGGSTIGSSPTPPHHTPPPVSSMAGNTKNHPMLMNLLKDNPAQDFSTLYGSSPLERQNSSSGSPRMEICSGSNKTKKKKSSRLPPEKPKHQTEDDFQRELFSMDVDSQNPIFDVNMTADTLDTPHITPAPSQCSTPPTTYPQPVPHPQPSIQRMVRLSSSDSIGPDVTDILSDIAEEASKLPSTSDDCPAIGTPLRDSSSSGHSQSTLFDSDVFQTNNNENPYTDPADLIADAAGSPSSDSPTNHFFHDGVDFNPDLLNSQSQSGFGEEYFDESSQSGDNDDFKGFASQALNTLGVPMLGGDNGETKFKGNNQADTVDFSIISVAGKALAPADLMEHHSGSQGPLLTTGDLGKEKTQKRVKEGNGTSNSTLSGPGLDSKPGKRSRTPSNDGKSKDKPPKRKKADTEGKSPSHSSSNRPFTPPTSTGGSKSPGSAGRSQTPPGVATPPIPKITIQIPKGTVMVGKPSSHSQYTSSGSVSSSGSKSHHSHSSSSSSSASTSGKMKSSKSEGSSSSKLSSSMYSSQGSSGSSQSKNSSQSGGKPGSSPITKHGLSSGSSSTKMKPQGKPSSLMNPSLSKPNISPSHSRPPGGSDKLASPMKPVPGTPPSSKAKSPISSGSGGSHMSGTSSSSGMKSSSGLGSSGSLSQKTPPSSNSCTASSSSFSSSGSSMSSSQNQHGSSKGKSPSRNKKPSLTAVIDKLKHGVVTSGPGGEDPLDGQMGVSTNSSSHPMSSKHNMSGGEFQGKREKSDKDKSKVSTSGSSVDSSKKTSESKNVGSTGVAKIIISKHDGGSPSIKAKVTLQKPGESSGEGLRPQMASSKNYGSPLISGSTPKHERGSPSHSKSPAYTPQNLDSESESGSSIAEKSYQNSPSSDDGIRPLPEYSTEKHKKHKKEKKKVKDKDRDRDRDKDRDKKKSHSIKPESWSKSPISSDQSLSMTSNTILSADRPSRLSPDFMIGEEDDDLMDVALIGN

SMILES: [2H]C1(Cc2ccc(OCc3nc4ccc(Oc5cc(C)c(N)c(C)c5)cc4n3C)cc2)SC(=O)NC1=O (racemic) [d−/d+, rac-5-[(p-{[6-(4-amino-3,5-xylyloxy)-1-methyl-1,3-diaza-1H-inden-2-yl]methoxy}phenyl)methyl]-(5-^2H)-1,3-thiazolidine-2,4-dione]
k, d+ → h+ [1, 3]: 0 h⁻¹
k, d+ → h− [1, 3]: 0.300 h⁻¹
k, d− → h+ [1, 3]: 0.211 h⁻¹
k, d− → h− [1, 3]: 0.499 h⁻¹
k, h+ → h− (average used in analysis of the deuterated mixture) [1, 4]: 0.802 h⁻¹
k, h− → h+ (average used in analysis of the deuterated mixture) [1, 4]: 0.668 h⁻¹

SMILES: Cc1cc(Oc2ccc3nc(COc4ccc(CC5SC(=O)NC5=O)cc4)n(C)c3c2)cc(C)c1N (single isomer, unassigned; (+)) [h+, (+)-5-[(p-{[6-(4-amino-3,5-xylyloxy)-1-methyl-1,3-diaza-1H-inden-2-yl]methoxy}phenyl)methyl]-1,3-thiazolidine-2,4-dione, reference compound]
k, h+ → h− ([1]; human plasma at 37° C.): 0.803 h⁻¹
k, h− → h+ ([1]; human plasma at 37° C.): 0.665 h⁻¹

SMILES: Cc1cc(Oc2ccc3nc(COc4ccc(CC5SC(=O)NC5=O)cc4)n(C)c3c2)cc(C)c1N (single isomer, unassigned; (-)) [h−, (−)-5-[(p-{[6-(4-amino-3,5-xylyloxy)-1-methyl-1,3-diaza-1H-inden-2-yl]methoxy}phenyl)methyl]-1,3-thiazolidine-2,4-dione, reference compound]
k, h+ → h− ([1]; human plasma at 37° C.): 0.800 h⁻¹
k, h− → h+ ([1]; human plasma at 37° C.): 0.671 h⁻¹

The remaining lines, values ahead:

potency relative to the (−) enantiomer d− (fold less potent) ([2]; ratio of EC50): 7 fold
SMILES: Cc1cc(Oc2ccc3nc(COc4ccc(CC5SC(=O)NC5=O)cc4)n(C)c3c2)cc(C)c1N (single isomer, unassigned; (+)) [d+, (+)-5-[(p-{[6-(4-amino-3,5-xylyloxy)-1-methyl-1,3-diaza-1H-inden-2-yl]methoxy}phenyl)methyl]-(5-^2H)-1,3-thiazolidine-2,4-dione]

stability of d+ relative to h+ ([1]; human plasma at 37° C.): 2-3 fold
pEC50 [2]: 7.31
SMILES: [2H]C1(Cc2ccc(OCc3nc4ccc(Oc5cc(C)c(N)c(C)c5)cc4n3C)cc2)SC(=O)NC1=O (single isomer, unassigned; (+)) [d+, (+)-5-[(p-{[6-(4-amino-3,5-xylyloxy)-1-methyl-1,3-diaza-1H-inden-2-yl]methoxy}phenyl)methyl]-(5-^2H)-1,3-thiazolidine-2,4-dione]

stability of d− relative to h− ([1]; human plasma at 37° C.): not more stable than h−
pEC50 [2]: 8.13
SMILES: [2H]C1(Cc2ccc(OCc3nc4ccc(Oc5cc(C)c(N)c(C)c5)cc4n3C)cc2)SC(=O)NC1=O (single isomer, unassigned; (-)) [d−, (−)-5-[(p-{[6-(4-amino-3,5-xylyloxy)-1-methyl-1,3-diaza-1H-inden-2-yl]methoxy}phenyl)methyl]-(5-^2H)-1,3-thiazolidine-2,4-dione]
